In US12291499B2, “Deuterated tryptamine derivatives and methods of use” (priority 2020, dated 2025):

Key:
[1] = test system: rat liver microsomes (RLM); assay: Metabolic stability in rat liver microsomes (RLM); conditions: for RLM, % (half-life as % vs. the related nondeuterated compound) / RLM, %, class symbol (metabolized or not): RLM assay; for RLM, % (half-life as % vs. the related nondeuterated compound): values in square brackets are within 10% (assay's accuracy), no deuteration effect; for RLM, %, class symbol (metabolized or not): last time point 120 min
hrMAO-A = target: T1, hrMAO-A (Homo sapiens, UniProt P21397); assay: Metabolic stability in the presence of hrMAO-A; assay type: in vitro ADME; conditions: for MAO, % (half-life as % vs. the related nondeuterated compound) / MAO, %, class symbol (metabolized or not): MAO-A assay; for MAO, % (half-life as % vs. the related nondeuterated compound): values in square brackets are within 10% (assay's accuracy), no deuteration effect; for MAO, %, class symbol (metabolized or not): last time point 120 min
T1 construct: purchased XenoTech Lot #8213001
T1 sequence (P21397 1-527): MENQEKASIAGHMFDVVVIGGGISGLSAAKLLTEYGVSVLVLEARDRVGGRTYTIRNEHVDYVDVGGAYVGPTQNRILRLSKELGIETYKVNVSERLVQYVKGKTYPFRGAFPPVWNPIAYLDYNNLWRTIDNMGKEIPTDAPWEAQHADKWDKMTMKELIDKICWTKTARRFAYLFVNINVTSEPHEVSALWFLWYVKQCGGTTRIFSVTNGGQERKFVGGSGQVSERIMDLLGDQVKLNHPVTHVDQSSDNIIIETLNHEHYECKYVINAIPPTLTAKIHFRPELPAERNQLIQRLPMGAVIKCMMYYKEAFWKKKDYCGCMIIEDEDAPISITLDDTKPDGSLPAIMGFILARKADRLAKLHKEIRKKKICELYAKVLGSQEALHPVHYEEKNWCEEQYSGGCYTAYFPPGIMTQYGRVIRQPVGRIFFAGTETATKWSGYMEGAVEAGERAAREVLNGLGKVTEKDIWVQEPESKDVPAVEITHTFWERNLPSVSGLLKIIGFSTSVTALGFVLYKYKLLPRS
Method: The reaction mixture was prepared as described below. The co-dosed TAs were added into the reaction mixture at a final concentration of 1 microM each. The positive control, kynuramine (25 microM), was run simultaneously with the TAs in a separate reaction. The reaction mixture (without TAs or kynuramine) was equilibrated in a shaking water bath at 37° C. for 5 minutes. The reaction was initiated by the addition of the TAs or kynuramine, and the mixture was incubated in a shaking water bath at 37° C. Aliquots (100 microL) of the TA reaction mixture were withdrawn at 0, 5, 10, 20, 30, 60, and 120 minutes. Aliquots (100 microL) of the positive control reaction mixture were withdrawn at 0 and 30 minutes. TA and kynuramine samples were immediately combined with 100 microL of ice-cold 100% MeCN containing 0.1% formic acid and IS to terminate the reaction. The samples were then mixed and centrifuged to precipitate proteins. All TA samples were assayed by LC-HRAMS. The PARR (analyte to IS) at each time point was compared to the PARR at time 0 to determine the percent remaining at each time point. Reaction composition: hrMAO 0.02 mg/mL; Potassium Phosphate, pH 7.4 100 mM; Magnesium Chloride 5 mM; Test Articles (each) 1 microM.

[2] = PK studies in rats (cassette dosing, oral gavage or catheter; brain and plasma levels); assay type: in vivo, Wistar female rats; conditions: % change vs. non-deuterated material; for Deuterium Kinetic Isotope Effect (% change) AUC / Deuterium Kinetic Isotope Effect (% change) T1/2: 5 mg/kg; for Deuterium Kinetic Isotope Effect (% change) BPR, 15 min: sacrificed at 15 min; for Deuterium Kinetic Isotope Effect (% change) BPR, 15 min / Deuterium Kinetic Isotope Effect (% change) BPR, 30 min: parent drug in brain and plasma; for Deuterium Kinetic Isotope Effect (% change) BPR, 30 min: sacrificed at 30 min
Method: The key PK parameters (presented as a % change vs. non-deuterated materials) are presented in Table 3 to include half-life (T1/2), area under the curve (AUC), bioavailability (F) and blood-to-plasma ration (BPR). Pharmacokinetics of the deuterated tryptamines was studied in rats. In a typical experiment, run as a cassette dosing, two groups of 5 Wistar female rats (200-250 g) with surgically inserted jugular vein catheter (Charles River, Andover, MA) were fasted for 12 h and then administered 5 mg/kg of the deuterated and 5 mg/kg of the related non-deuterated analog, by oral gavage or via a catheter for each group. At time points 0, 15, 30, 60 min, and 2, 4, 8, and 24 h, the resulting plasma was analyzed for the parent molecule using LC/MS spectroscopy. Two separate groups of 5 animals were used for determining blood-to-plasma ratio (BPR). Each group was sacrificed at time points 15 and 30 min, respectively, and the concentration of the parent drug was determined in the brain and plasma by LC/MS spectroscopy.

[3] = Table 5, d8 and d10 analogs, hrMAO-A

[2H]C([2H])([2H])C([2H])([2H])NC([2H])([2H])C([2H])([2H])c1c[nH]c2cccc(O)c12
RLM, % (half-life as % vs. the related nondeuterated compound) [1]: [93] %

[2H]C([2H])(Cc1c[nH]c2ccccc12)NC([2H])([2H])C([2H])([2H])[2H]
MAO, % (half-life as % vs. the related nondeuterated compound) (hrMAO-A): 170%

CCN(CC)CCc1c[nH]c2ccccc12
RLM, %, class symbol (metabolized or not) [1]: R

[2H]C([2H])(Cc1c[nH]c2ccccc12)N(C)C [DMT-d2]
Half-life (hrMAO-A; Table 3, hrMAO-A): > 120 min | % Remaining of Initial 0 min (hrMAO-A; Table 3, hrMAO-A): 100% | % Remaining of Initial 60 min (hrMAO-A; Table 3, hrMAO-A, 60 min): 76.0% | % Remaining of Initial 0 min ([1]; Table 2, RLM): 100% | % Remaining of Initial 60 min ([1]; Table 2, RLM, 60 min): 32.0%

CCN(C)CCc1c[nH]c2ccccc12 [reference compound]
MAO, %, class symbol (metabolized or not) (hrMAO-A): R | RLM, %, class symbol (metabolized or not) [1]: R

[2H]C([2H])(c1c[nH]c2cccc(O)c12)C([2H])([2H])N(C(C)C)C(C)C
RLM, % (half-life as % vs. the related nondeuterated compound) [1]: [97] %

CC(C)NCCc1c[nH]c2ccccc12
RLM, %, class symbol (metabolized or not) [1]: R

CC(C)NCCc1c[nH]c2cccc(O)c12
RLM, %, class symbol (metabolized or not) [1]: R

CCN(CC)CCc1c[nH]c2ccc(OC)cc12
RLM, %, class symbol (metabolized or not) [1]: R

CN(C)CCc1c[nH]c2ccc(O)cc12 [reference compound]
MAO, %, class symbol (metabolized or not) (hrMAO-A): R | RLM, %, class symbol (metabolized or not) [1]: R

[2H]C([2H])(Cc1c[nH]c2ccc(OC)cc12)N(C)C [5-MeO-DMT-α,α-d2]
Deuterium Kinetic Isotope Effect (% change) AUC [2]: 60 % change | Deuterium Kinetic Isotope Effect (% change) T1/2 [2]: 30 % change | Deuterium Kinetic Isotope Effect (% change) BPR, 15 min [2]: 120 % change | Deuterium Kinetic Isotope Effect (% change) BPR, 30 min [2]: 180 % change

CCNCCc1c[nH]c2ccccc12 [reference compound]
MAO, %, class symbol (metabolized or not) (hrMAO-A): R | RLM, %, class symbol (metabolized or not) [1]: R

CCN(C)CCc1c[nH]c2ccc(O)cc12 [reference compound]
MAO, %, class symbol (metabolized or not) (hrMAO-A): R | RLM, %, class symbol (metabolized or not) [1]: R

CN(C)CCc1c[nH]c2ccccc12 [DMT]
% Remaining of Initial 0 min (hrMAO-A; Table 3, hrMAO-A): 100% | % Remaining of Initial 0 min ([1]; Table 2, RLM): 100% | % Remaining of Initial 20 min ([1]; Table 2, RLM, 20 min): 41.0%

CC(C)N(CCc1c[nH]c2cccc(O)c12)C(C)C
RLM, %, class symbol (metabolized or not) [1]: R

[2H]C([2H])([2H])N(C([2H])([2H])[2H])C([2H])([2H])C([2H])([2H])c1c[nH]c2ccccc12 [DMT-d10]
metabolic stability in the MAO-A enzymatic assay, in words (hrMAO-A; MAO-A enzymatic assay): superiority | Half-life (hrMAO-A; Table 3, hrMAO-A): > 120 min | % Remaining of Initial 0 min (hrMAO-A; Table 3, hrMAO-A): 100% | Half-life (hrMAO-A; [3]): > 120 min | % Remaining of Initial 0 min (hrMAO-A; [3]): 100.0% | % Remaining of Initial 5 min (hrMAO-A; Table 5, d8 and d10 analogs, hrMAO-A, 5 min): 99.0% | % Remaining of Initial 0 min ([1]; Table 2, RLM): 100% | % Remaining of Initial 0 min ([1]; Table 4, d8 and d10 analogs, RLM): 100% | % Remaining of Initial 10 min ([1]; Table 4, d8 and d10 analogs, RLM, 10 min): 56.0% | kinetic deuterium isotope effect / metabolic stability, in words ([1]; rat liver microsomes, vs. DMT): Further enhancement of metabolic stability

[2H]C([2H])(c1c[nH]c2ccccc12)C([2H])([2H])N(C)C [DMT-d4]
Half-life (hrMAO-A; Table 3, hrMAO-A): > 120 min | % Remaining of Initial 0 min (hrMAO-A; Table 3, hrMAO-A): 100% | % Remaining of Initial 0 min ([1]; Table 2, RLM): 100%

CCN(CC)CCc1c[nH]c2ccc(O)cc12
RLM, %, class symbol (metabolized or not) [1]: R

COc1ccc2[nH]cc(CCN(C)C)c2c1 [5-MeO-DMT, reference compound]
MAO, %, class symbol (metabolized or not) (hrMAO-A): R | RLM, %, class symbol (metabolized or not) [1]: R

C=CCNCCc1c[nH]c2ccccc12
RLM, %, class symbol (metabolized or not) [1]: R

[2H]C([2H])(c1c[nH]c2ccc(OC)cc12)C([2H])([2H])N(CC)CC
RLM, % (half-life as % vs. the related nondeuterated compound) [1]: [95] %

CCN(CC)CCc1c[nH]c2cccc(OC)c12
RLM, %, class symbol (metabolized or not) [1]: R

CNCCc1c[nH]c2cccc(O)c12 [reference compound]
MAO, %, class symbol (metabolized or not) (hrMAO-A): R | RLM, %, class symbol (metabolized or not) [1]: R

[2H]C([2H])(NCC)C([2H])([2H])c1c[nH]c2cccc(O)c12
RLM, % (half-life as % vs. the related nondeuterated compound) [1]: [94] %

CCN(C)CCc1c[nH]c2cccc(OC)c12 [reference compound]
MAO, %, class symbol (metabolized or not) (hrMAO-A): R | RLM, %, class symbol (metabolized or not) [1]: R

[2H]c1ccc2[nH]c([2H])c(CCN([2H])CC)c2c1O
RLM, %, class symbol (metabolized or not) [1]: R

[2H]C([2H])(Cc1c[nH]c2cccc(O)c12)N(C)C [PI-α,α-d2]
Deuterium Kinetic Isotope Effect (% change) AUC [2]: 75 % change | Deuterium Kinetic Isotope Effect (% change) T1/2 [2]: 50 % change | Deuterium Kinetic Isotope Effect (% change) BPR, 15 min [2]: 100 % change | Deuterium Kinetic Isotope Effect (% change) BPR, 30 min [2]: 150 % change

[2H]C([2H])(c1c[nH]c2cccc(OC)c12)C([2H])([2H])N(C)C
RLM, % (half-life as % vs. the related nondeuterated compound) [1]: 190%

C=CCN(CC=C)CCc1c[nH]c2ccccc12
RLM, %, class symbol (metabolized or not) [1]: R

[2H]C([2H])(NC)C([2H])([2H])c1c[nH]c2cccc(O)c12
RLM, % (half-life as % vs. the related nondeuterated compound) [1]: 160%

CNCCc1c[nH]c2ccccc12 [reference compound]
MAO, %, class symbol (metabolized or not) (hrMAO-A): R | RLM, %, class symbol (metabolized or not) [1]: R

[2H]C([2H])(NCC)C([2H])([2H])c1c[nH]c2ccccc12
MAO, % (half-life as % vs. the related nondeuterated compound) (hrMAO-A): 140%

CCN(C)CCc1c[nH]c2ccc(OC)cc12 [reference compound]
MAO, %, class symbol (metabolized or not) (hrMAO-A): R | RLM, %, class symbol (metabolized or not) [1]: R

CCNCCc1c[nH]c2cccc(O)c12
RLM, %, class symbol (metabolized or not) [1]: R

COc1cccc2[nH]cc(CCN(C)C)c12 [reference compound]
MAO, %, class symbol (metabolized or not) (hrMAO-A): R | RLM, %, class symbol (metabolized or not) [1]: R
